Assay results taken from patent US20250136606A1, “MODULATORS OF TRPML, THEIR COMPOSITIONS AND METHODS OF USE” (Caraway Therapeutics, Inc., priority 2021, published 2025).

Assays:
Assay type in all cases: cell-based
Conditions in all cases: fluorescent calcium assay
[1] = target: TRPML1 (Homo sapiens, UniProt Q9GZU1); experiment: Fluorescent TRPML1 assay (Fluo4-AM calcium fluorescence in doxycycline-induced HEK-293 Trex cells)
In short: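 HEK-293 Trex cells stably expressing surface-directed mutant human TRPML1, induced with 0.5 µg/mL doxycycline overnight, were loaded with 1 µM Fluo4-AM and added to compound (6 nM–20 µM final, half-log steps, triplicate) in Ringer's with 10 mM calcium. Fluorescence ex 480/em 540; EC50 by non-linear regression versus plate controls.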

[2] = target: T1, TRPML2 (Homo sapiens, UniProt Q8IZK6); experiment: Fluorescent TRPML2 assay (performed as for TRPML1, substituting the TRPML2 subtype)
T1 construct: expressed in transfected cells
T1 sequence (Q8IZK6 1-566): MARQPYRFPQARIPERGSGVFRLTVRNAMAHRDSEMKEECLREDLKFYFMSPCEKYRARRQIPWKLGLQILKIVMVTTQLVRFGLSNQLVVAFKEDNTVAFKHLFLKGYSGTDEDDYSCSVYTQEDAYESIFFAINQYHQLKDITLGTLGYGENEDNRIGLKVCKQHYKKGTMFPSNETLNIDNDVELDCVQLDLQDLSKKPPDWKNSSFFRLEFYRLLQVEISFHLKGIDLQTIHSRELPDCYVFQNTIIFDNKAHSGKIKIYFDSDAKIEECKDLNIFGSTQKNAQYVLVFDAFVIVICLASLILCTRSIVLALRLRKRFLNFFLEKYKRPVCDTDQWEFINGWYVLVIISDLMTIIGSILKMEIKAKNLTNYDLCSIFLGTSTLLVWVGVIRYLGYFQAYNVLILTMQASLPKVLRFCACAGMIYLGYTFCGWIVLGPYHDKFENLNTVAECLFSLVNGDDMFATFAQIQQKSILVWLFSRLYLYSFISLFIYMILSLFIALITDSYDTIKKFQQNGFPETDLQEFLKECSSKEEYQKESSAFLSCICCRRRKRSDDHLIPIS
Method: HEK-293 Trex cells were stably transfected with a construct consisting of the human coding sequence for TRPML1 cloned into the […] plasmid pCDNA5 T/O. Mutations were introduced into the TRPML1 sequence to facilitate expression on the cell surface (Silvia Vergarajauregui, Rosa Puertollano, Traffic. 2006 March; 7(3): 337-353). Briefly, the cells are cultured in 150 mm round tissue culture dishes containing 20 mL of media. The day before the assay the cells are rinsed with DPBS-Ca—Mg and then treated briefly with Trypsin-EDTA. The Trypsin-EDTA is diluted with growth media, and cells are counted. 38×10^6 cells are re-plated into 150 mm round tissue culture dishes in media containing 0.5 ug/mL doxycycline to induce expression of hTRPML1.
The day of the experiment cells are lifted from the plates as above and collected by centrifugation. The cells are then suspended in dye loading buffer consisting of Ringer's solution supplemented with 0.1% Pluronic Acid and 1 micromolar Fluo4-AM dye. Cells are loaded for ˜60 minutes in the dark with occasional mixing. The cells are collected by centrifugation, the loading media aspirated, and the cells resuspended in 25 mL Ringer's solution and incubated ˜60 minutes in the dark. The cells are again collected by centrifugation, rinsed in Ringer's Solution and resuspended to […] in modified Ringer's solution containing 10 mM calcium.
Compounds are dissolved to a concentration of 10 millimolar with DMSO. Compound plates are created by dispensing compounds into 384 well black wall clear bottom plates (Greiner 781091). Positive and negative controls are included on each plate. Typically, different amounts of each compound are tested ranging from 100 nanoMoles (20 micromolar final concentration) decreasing in half-log steps to 31 picoMoles (6 nanomolar final concentration). Each concentration is typically tested in triplicate.
50 microliters of dye-loaded cells are dispensed into each well of the compound assay plate created above. The fluorescence in each well is then determined with an excitation wavelength of 480 nm and an emission wavelength of 540 nm using either a Molecular Devices SpectraMax multimode plate reader or a Hamamatsu FDSS/uCell plate imager.
The resulting fluorescence for each well is exported as an ascii file and loaded into our LIMS for analysis. The percent activity of each compound at each concentration is determined by comparison to the positive and negative control wells included in each plate.
TRPML2 and TRPML3 Assays Assays for TRPML2 and TRPML3 were performed as above for TRPML1, by substituting the appropriate TRPML2 or TRPML3 subtype for the TRPML1.
EC50 values were calculated using a non-linear regression of Prism. In the table, “A” indicates an EC50 of less than 100 nM, “B” indicates an EC50 range from 100 nM to 500 nM; “C” indicates an EC50 range from 500 nM to 2 μM; and “D” indicates an EC50 greater than 2 μM.

[3] = target: T2, TRPML3 (Homo sapiens, UniProt Q8TDD5); experiment: Fluorescent TRPML3 assay (performed as for TRPML1, substituting the TRPML3 subtype)
T2 construct: expressed in transfected cells
T2 sequence (Q8TDD5 1-553): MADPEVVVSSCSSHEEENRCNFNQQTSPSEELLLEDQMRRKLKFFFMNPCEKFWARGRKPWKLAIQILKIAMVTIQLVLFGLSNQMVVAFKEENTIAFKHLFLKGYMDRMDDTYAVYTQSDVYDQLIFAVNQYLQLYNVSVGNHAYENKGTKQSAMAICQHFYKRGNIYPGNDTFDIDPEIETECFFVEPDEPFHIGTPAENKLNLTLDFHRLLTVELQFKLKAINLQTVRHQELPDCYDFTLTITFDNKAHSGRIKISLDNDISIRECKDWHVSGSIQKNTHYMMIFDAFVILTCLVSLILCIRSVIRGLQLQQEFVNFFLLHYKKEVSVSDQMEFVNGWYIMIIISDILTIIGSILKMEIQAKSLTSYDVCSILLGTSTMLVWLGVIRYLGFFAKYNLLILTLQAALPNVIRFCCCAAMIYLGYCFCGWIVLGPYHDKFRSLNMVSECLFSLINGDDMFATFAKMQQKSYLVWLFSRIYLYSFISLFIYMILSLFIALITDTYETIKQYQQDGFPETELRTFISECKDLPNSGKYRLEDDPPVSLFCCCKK
In short: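 HEK-293 Trex, dox-induced (0.5 ug/mL), mutated for surface expression. Fluo4-AM 1 micromolar load ~60 min, dark; buffer modified Ringer's, 10 mM Ca. Cpds 20 micromolar–6 nanomolar final, half-log, n=3. Read ex 480/em 540; % activity vs controls; EC50 nonlinear fit.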

Chain of TRPML1 (Q9GZU1 whole entry L15A/L16A/L577A/L578A, form open): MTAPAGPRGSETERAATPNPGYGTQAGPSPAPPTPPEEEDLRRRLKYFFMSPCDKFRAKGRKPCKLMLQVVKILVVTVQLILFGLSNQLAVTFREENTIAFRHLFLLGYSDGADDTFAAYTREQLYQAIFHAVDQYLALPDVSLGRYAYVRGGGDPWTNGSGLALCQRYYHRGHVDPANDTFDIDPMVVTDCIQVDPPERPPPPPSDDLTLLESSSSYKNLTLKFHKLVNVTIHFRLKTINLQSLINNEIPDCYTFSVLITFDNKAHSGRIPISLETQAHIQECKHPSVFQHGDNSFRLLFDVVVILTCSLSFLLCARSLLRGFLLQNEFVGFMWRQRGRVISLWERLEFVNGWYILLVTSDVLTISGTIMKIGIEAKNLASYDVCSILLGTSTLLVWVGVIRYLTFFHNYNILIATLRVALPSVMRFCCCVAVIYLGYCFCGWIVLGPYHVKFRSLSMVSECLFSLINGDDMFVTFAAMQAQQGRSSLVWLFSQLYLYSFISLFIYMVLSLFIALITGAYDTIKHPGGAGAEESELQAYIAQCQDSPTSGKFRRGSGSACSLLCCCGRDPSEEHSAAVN

For CC(C)(C)OC(=O)N1CCN(c2ncnc3c2c(C2CC2)cn3-c2ccc(Cl)cc2)CC1 [Compound 107, tert-butyl 4-(7-(4-chlorophenyl)-5-cyclopropyl-7H-pyrrolo[2,3-d]pyrimidin-4-yl) piperazine-1-carboxylate], the EC50 [1] was less than 100 nM, the EC50 [2] was 100 to 500 nM and the EC50 [3] was less than 100 nM.
C[C@@H]1CN(c2ncnc3c2c(C2CC2)cn3-c2cc(F)cc(F)c2)CCN1C(=O)OC(C)(C)C [Compound 108, tert-butyl (R)-4-(5-cyclopropyl-7-(3,5-difluorophenyl)-7H-pyrrolo[2,3-d]pyrimidin-4-yl)-2-methylpiperazine-1-carboxylate] was tested, and the EC50 [1] was less than 100 nM, the EC50 [2] was 100 to 500 nM and the EC50 [3] was less than 100 nM.
C[C@@H]1CN(c2ncnc3c2c(C2CC2)cn3-c2ccc(F)c(F)c2)CCN1C(=O)OC(C)(C)C [Compound 109, tert-butyl (R)-4-(5-cyclopropyl-7-(3,4-difluorophenyl)-7H-pyrrolo[2,3-d]pyrimidin-4-yl)-2-methylpiperazine-1-carboxylate] was tested, and the EC50 [1] was less than 100 nM, the EC50 [2] was less than 100 nM and the EC50 [3] was less than 100 nM.
Compound C[C@@H]1CN(c2ncnc3c2c(C2CC2)cn3-c2ccc(Cl)c(F)c2)CCN1C(=O)OC(C)(C)C [Compound 110, tert-butyl (R)-4-(7-(4-chloro-3-fluorophenyl)-5-cyclopropyl-7H-pyrrolo[2,3-d]pyrimidin-4-yl)-2-methylpiperazine-1-carboxylate] has an EC50 [1] of less than 100 nM, an EC50 [2] of less than 100 nM and an EC50 [3] of less than 100 nM.
Compound C[C@@H]1CN(c2ncnc3c2c(C2CC2)cn3-c2cc(Cl)cc(Cl)c2)CCN1C(=O)OC(C)(C)C [Compound 111, tert-butyl (R)-4-(5-cyclopropyl-7-(3,5-dichlorophenyl)-7H-pyrrolo[2,3-d]pyrimidin-4-yl)-2-methylpiperazine-1-carboxylate] has an EC50 [1] of less than 100 nM, an EC50 [2] of 100 to 500 nM and an EC50 [3] of less than 100 nM.
Compound CCOC(=O)N1CCN(c2ncnc3c2c(C2CC2)cn3-c2ccc(Cl)cc2)[C@@H](C)C1 [Compound 112, ethyl (S)-4-(7-(4-chlorophenyl)-5-cyclopropyl-7H-pyrrolo[2,3-d]pyrimidin-4-yl)-3-methylpiperazine-1-carboxylate] has an EC50 [1] of 100 to 500 nM, an EC50 [2] of 100 to 500 nM and an EC50 [3] of 500 to 2000 nM.
Compound CC(C)(C)OC(=O)N1CCN(c2ncnc3c2c(C2CC2)cn3-c2ccc(F)c(F)c2)CC1 [Compound 113, tert-butyl 4-(5-cyclopropyl-7-(3,4-difluorophenyl)-7H-pyrrolo[2,3-d]pyrimidin-4-yl)piperazine-1-carboxylate] has an EC50 [1] of less than 100 nM, an EC50 [2] of 500 to 2000 nM and an EC50 [3] of 100 to 500 nM.
In the case of C[C@H]1CN(C(=O)OC(C)(C)C)CCN1c1ncnc2c1c(C1CC1)cn2-c1ccc(Cl)cc1 [Compound 114, tert-butyl (S)-4-(7-(4-chlorophenyl)-5-cyclopropyl-7H-pyrrolo[2,3-d]pyrimidin-4-yl)-3-methylpiperazine-1-carboxylate], the EC50 [1] is reported as less than 100 nM, the EC50 [2] is reported as less than 100 nM and the EC50 [3] is reported as less than 100 nM.
Compound C[C@H]1CN(C(=O)OC(C)(C)C)CCN1c1ncnc2c1c(-c1ccncn1)cn2-c1cccc(Cl)c1 [Compound 115, tert-butyl (S)-4-(7-(3-chlorophenyl)-5-(pyrimidin-4-yl)-7H-pyrrolo[2,3-d]pyrimidin-4-yl)-3-methylpiperazine-1-carboxylate] has an EC50 [1] of 100 to 500 nM, an EC50 [2] of 500 to 2000 nM and an EC50 [3] of 100 to 500 nM.
C[C@H]1CN(C(=O)OC(C)(C)C)CCN1c1ncnc2c1c(-c1ncccn1)cn2-c1cccc(Cl)c1 [Compound 116, tert-butyl (S)-4-(7-(3-chlorophenyl)-5-(pyrimidin-2-yl)-7H-pyrrolo[2,3-d]pyrimidin-4-yl)-3-methylpiperazine-1-carboxylate] showed an EC50 [1] of 100 to 500 nM, an EC50 [2] of 500 to 2000 nM and an EC50 [3] of 100 to 500 nM.
C[C@@H]1CN(c2ncnc3c2c(-c2ccccn2)cn3-c2cccc(Cl)c2)[C@@H](C)CN1C(=O)OC(C)(C)C [Compound 117, tert-butyl (2R,5S)-4-(7-(3-chlorophenyl)-5-(pyridin-2-yl)-7H-pyrrolo[2,3-d]pyrimidin-4-yl)-2,5-dimethylpiperazine-1-carboxylate] was tested, and the EC50 [1] was less than 100 nM, the EC50 [2] was 100 to 500 nM and the EC50 [3] was less than 100 nM.
In the case of CCOC(=O)N1C[C@H](C)N(c2ncnc3c2c(-c2ccccn2)cn3-c2cccc(Cl)c2)C[C@H]1C [Compound 118, Ethyl (2R,5S)-4-(7-(3-chlorophenyl)-5-(pyridin-2-yl)-7H-pyrrolo[2,3-d]pyrimidin-4-yl)-2,5-dimethylpiperazine-1-carboxylate], the EC50 [1] is reported as 100 to 500 nM, the EC50 [2] is reported as greater than 2000 nM and the EC50 [3] is reported as 500 to 2000 nM.
C[C@H]1CN(C(=O)OC(C)(C)C)CCN1c1ncnc2c1c(-c1ccccn1)cn2-c1cccc(Cl)c1 [Compound 119, tert-butyl (S)-4-(7-(3-chlorophenyl)-5-(pyridin-2-yl)-7H-pyrrolo[2,3-d]pyrimidin-4-yl)-3-methylpiperazine-1-carboxylate] showed an EC50 [1] of less than 100 nM, an EC50 [2] of 100 to 500 nM and an EC50 [3] of less than 100 nM.
With C[C@H]1CN(C(=O)OC(C)(C)C)CCN1c1ncnc2c1c(-c1cnccn1)cn2-c1cccc(Cl)c1 [Compound 120, tert-butyl (S)-4-(7-(3-chlorophenyl)-5-(pyrazin-2-yl)-7H-pyrrolo[2,3-d]pyrimidin-4-yl)-3-methylpiperazine-1-carboxylate] the EC50 [1] was 100 to 500 nM, the EC50 [2] was 100 to 500 nM and the EC50 [3] was less than 100 nM.
Compound C[C@H]1CN(C(=O)OC(C)(C)C(F)(F)F)CCN1c1ncnc2c1c(-c1ccccn1)cn2-c1cccc(Cl)c1 [Compound 121, 1,1,1-trifluoro-2-methylpropan-2-yl (S)-4-(7-(3-chlorophenyl)-5-(pyridin-2-yl)-7H-pyrrolo[2,3-d]pyrimidin-4-yl)-3-methylpiperazine-1-carboxylate] has an EC50 [1] of less than 100 nM, an EC50 [2] of 100 to 500 nM and an EC50 [3] of less than 100 nM.
CC(C)(C)OC(=O)N1CCN(c2ncnc3c2c(C2CC2)cn3-c2cc(Cl)cc(Cl)c2)CC1 [Compound 122, tert-butyl 4-(5-cyclopropyl-7-(3,5-dichlorophenyl)-7H-pyrrolo[2,3-d]pyrimidin-4-yl)piperazine-1-carboxylate] gave an EC50 [1] of less than 100 nM, an EC50 [2] greater than 2000 nM and an EC50 [3] of less than 100 nM.
